From ChEMBL document CHEMBL4765295, “Synthesis, pharmacological profile and 2D-QSAR studies of curcumin-amino acid conjugates as potential drug candidates” (Eur J Med Chem, 2020)
“And” between values parts separate entries of the source, which are not always exact repeats. Identical values can stand only once.

What follows are compounds tested on Rattus norvegicus (assay: Antiinflammatory activity in Wistar rat model of carrageenan-induced paw edema assessed as reduction in thickness of paw edema at 10 mg/kg, ip pretreated for 1 hr followed by carrageenan challenge and measured after 1 hr (reference value: 2.41 +/-0.05 mm)). Conditions: time 1 hr after carrageenan.
Type: functional

Compound	Activity
COc1cc(/C=C/C(=O)/C=C(O)/C=C/c2ccc(OC(=O)[C@@H](N)CCC(N)=O)c(OC)c2)ccc1OC(=O)[C@@H](N)CCC(N)=O.Cl.Cl	1.29 mm

These compounds were tested on Rattus norvegicus (assay: Anti-inflammatory activity in Wistar rat assessed as inhibition of carrageenan-induced paw edema at 10 mg/kg, ip pretreated for 1 hr followed by carrageenan challenge and measured after 1 hr relative to control (reference value: 0.00 +/-0.02 %)). Conditions: time 2 hrs.
Type: functional

Compound	inhibition in vivo at 10 mg/kg
COc1cc(/C=C/C(=O)/C=C(O)/C=C/c2ccc(OC(=O)[C@@H](N)CCC(N)=O)c(OC)c2)ccc1OC(=O)[C@@H](N)CCC(N)=O.Cl.Cl	46%

These compounds were tested on Rattus norvegicus (assay: Antiinflammatory activity in Wistar rat model of carrageenan-induced paw edema assessed as reduction in thickness of paw edema at 10 mg/kg, ip pretreated for 1 hr followed by carrageenan challenge and measured after 2 hrs (reference value: 2.06 +/-0.09 mm)). Conditions: time 3 hrs.
Type: functional

Compound	Activity
COc1cc(/C=C/C(=O)/C=C(O)/C=C/c2ccc(OC(=O)[C@@H](N)CCC(N)=O)c(OC)c2)ccc1OC(=O)[C@@H](N)CCC(N)=O.Cl.Cl	1.14 mm

What follows are compounds tested on Rattus norvegicus (assay: Anti-inflammatory activity in Wistar rat assessed as inhibition of carrageenan-induced paw edema at 10 mg/kg, ip pretreated for 1 hr followed by carrageenan challenge and measured after 2 hr relative to control (reference value: 0.00 +/-0.03 %)). Conditions: time 3 hrs.
Type: functional

Compound	inhibition in vivo at 10 mg/kg
COc1cc(/C=C/C(=O)/C=C(O)/C=C/c2ccc(OC(=O)[C@@H](N)CCC(N)=O)c(OC)c2)ccc1OC(=O)[C@@H](N)CCC(N)=O.Cl.Cl	45%

Each compound was assayed on Rattus norvegicus (assay: Antiinflammatory activity in Wistar rat model of carrageenan-induced paw edema assessed as reduction in thickness of paw edema at 10 mg/kg, ip pretreated for 1 hr followed by carrageenan challenge and measured after 3 hrs (reference value: 1.79 +/-0.07 mm)). Conditions: time 4 hrs.
Type: functional

Compound	Activity
COc1cc(/C=C/C(=O)/C=C(O)/C=C/c2ccc(OC(=O)[C@@H](N)CCC(N)=O)c(OC)c2)ccc1OC(=O)[C@@H](N)CCC(N)=O.Cl.Cl	1.02 mm

These compounds were tested on Rattus norvegicus (assay: Anti-inflammatory activity in Wistar rat assessed as inhibition of carrageenan-induced paw edema at 10 mg/kg, ip pretreated for 1 hr followed by carrageenan challenge and measured after 3 hr relative to control (reference value: 0.00 +/-0.1 %)). Conditions: time 4 hrs.
Type: functional

Compound	inhibition in vivo at 10 mg/kg
COc1cc(/C=C/C(=O)/C=C(O)/C=C/c2ccc(OC(=O)[C@@H](N)CCC(N)=O)c(OC)c2)ccc1OC(=O)[C@@H](N)CCC(N)=O.Cl.Cl	43%

The compounds below were run on Rattus norvegicus (assay: Antiinflammatory activity in Wistar rat model of carrageenan-induced paw edema assessed as reduction in thickness of paw edema at 10 mg/kg, ip pretreated for 1 hr followed by carrageenan challenge and measured after 4 hrs (reference value: 1.40 +/-0.10 mm)). Conditions: time 5 hrs.
Type: functional

Compound	Activity
COc1cc(/C=C/C(=O)/C=C(O)/C=C/c2ccc(OC(=O)[C@@H](N)CCC(N)=O)c(OC)c2)ccc1OC(=O)[C@@H](N)CCC(N)=O.Cl.Cl	0.81 mm

These compounds were tested on Rattus norvegicus (assay: Anti-inflammatory activity in Wistar rat assessed as inhibition of carrageenan-induced paw edema at 10 mg/kg, ip pretreated for 1 hr followed by carrageenan challenge and measured after 4 hr relative to control (reference value: 0.00 +/-0.4 %)). Conditions: time 5 hrs.
Type: functional

Compound	inhibition in vivo at 10 mg/kg
COc1cc(/C=C/C(=O)/C=C(O)/C=C/c2ccc(OC(=O)[C@@H](N)CCC(N)=O)c(OC)c2)ccc1OC(=O)[C@@H](N)CCC(N)=O.Cl.Cl	42%

The compounds below were run on Rattus norvegicus (assay: Antiinflammatory activity in Wistar rat model of carrageenan-induced paw edema assessed as reduction in thickness of paw edema at 10 mg/kg, ip pretreated for 1 hr followed by carrageenan challenge and measured after 24 hrs (reference value: 0.83 +/-0.08 mm)). Conditions: time 25 hrs.
Type: functional

Compound	Activity
COc1cc(/C=C/C(=O)/C=C(O)/C=C/c2ccc(OC(=O)[C@@H](N)CCC(N)=O)c(OC)c2)ccc1OC(=O)[C@@H](N)CCC(N)=O.Cl.Cl	0.57 mm

The compounds below were run on Rattus norvegicus (assay: Anti-inflammatory activity in Wistar rat assessed as inhibition of carrageenan-induced paw edema at 10 mg/kg, ip pretreated for 1 hr followed by carrageenan challenge and measured after 24 hr relative to control (reference value: 0.00 +/-0.3 %)). Conditions: time 25 hrs.
Type: functional

Compound	inhibition in vivo at 10 mg/kg
COc1cc(/C=C/C(=O)/C=C(O)/C=C/c2ccc(OC(=O)[C@@H](N)CCC(N)=O)c(OC)c2)ccc1OC(=O)[C@@H](N)CCC(N)=O.Cl.Cl	31%

Each compound was assayed on Rattus norvegicus (assay: Anti-inflammatory activity in Wistar rat assessed as inhibition of carrageenan-induced paw edema at 10 mg/kg, ip pretreated for 1 hr followed by carrageenan challenge and measured after 4 hr relative to indomethacin). Conditions: time 5 hrs.
Type: functional

Compound	inhibition in vivo at 10 mg/kg
COc1cc(/C=C/C(=O)/C=C(O)/C=C/c2ccc(OC(=O)[C@@H](N)CCC(N)=O)c(OC)c2)ccc1OC(=O)[C@@H](N)CCC(N)=O.Cl.Cl	48%

What follows are compounds tested on Splenocyte (assay: Immunomodulatory activity in Swiss albino mouse splenocytes assessed as cell viability at 10 uM by measuring stimulation index incubated for 72 hrs in presence of mitogenic stimulus phytohaemagglutinin by MTT assay (reference value: 1.00 +/- 0.24)). Conditions: not given.
Type: functional

Compound	Activity_index
COc1cc(/C=C/C(=O)/C=C(O)/C=C/c2ccc(OC(=O)[C@@H](N)CCC(N)=O)c(OC)c2)ccc1OC(=O)[C@@H](N)CCC(N)=O.Cl.Cl	2.22

The compounds below were run on Splenocyte (assay: Immunomodulatory activity in Swiss albino mouse splenocytes assessed as cell viability at 10 uM by measuring inhibition of stimulation index incubated for 72 hrs in presence of mitogenic stimulus phytohaemagglutinin by MTT assay relative to indomethacin). Conditions: read-out: Activity.
Type: functional

Compound	viability at 10 µM
COc1cc(/C=C/C(=O)/C=C(O)/C=C/c2ccc(OC(=O)[C@@H](N)CCC(N)=O)c(OC)c2)ccc1OC(=O)[C@@H](N)CCC(N)=O.Cl.Cl	54.5%

These compounds were tested on Peritoneal macrophage (assay: Antiinflammatory activity in […] mouse Peritoneal macrophages assessed as reduction in LPS-induced NO production by measuring reduction in stimulation index at 10 uM preincubated for 1 hr followed by LPS stimulation measured after 24 hrs by Griess method (reference value: 27.31 +/- 2.56 uM)). Conditions: time 25 hrs.
Type: functional

Compound	Activity
COc1cc(/C=C/C(=O)/C=C(O)/C=C/c2ccc(OC(=O)[C@@H](N)CCC(N)=O)c(OC)c2)ccc1OC(=O)[C@@H](N)CCC(N)=O.Cl.Cl	21.75 µM

These compounds were tested on Peritoneal macrophage (assay: Antiinflammatory activity in […] mouse Peritoneal macrophages assessed as inhibition of LPS-induced NO production at 10 uM preincubated for 1 hr followed by LPS stimulation measured after 24 hrs by Griess method relative to control (reference value: 0.0 %)). Conditions: time 25 hrs.
Type: functional
Set-up: scale not given: the % may be the effect or the level left

Compound	Activity
COc1cc(/C=C/C(=O)/C=C(O)/C=C/c2ccc(OC(=O)[C@@H](N)CCC(N)=O)c(OC)c2)ccc1OC(=O)[C@@H](N)CCC(N)=O.Cl.Cl	20.35%

The compounds below were run on Staphylococcus aureus (assay: Antibacterial activity against Staphylococcus aureus ATCC 25923 incubated for 18 hrs by agar dilution method). Conditions: not given.
Type: functional

MIC	Compound
0.25 µg/mL and 0.358 µM	COc1cc(/C=C/C(=O)/C=C(O)/C=C/c2ccc(OC(=O)[C@@H](N)CCC(N)=O)c(OC)c2)ccc1OC(=O)[C@@H](N)CCC(N)=O.Cl.Cl

The compounds below were run on Streptococcus pyogenes (assay: Antibacterial activity against Streptococcus pyogenes ATCC 19615 incubated for 18 hrs by agar dilution method). Conditions: not given.
Type: functional

MIC	Compound
0.5 µg/mL and 0.717 µM	COc1cc(/C=C/C(=O)/C=C(O)/C=C/c2ccc(OC(=O)[C@@H](N)CCC(N)=O)c(OC)c2)ccc1OC(=O)[C@@H](N)CCC(N)=O.Cl.Cl

These compounds were tested on Salmonella typhimurium (assay: Antibacterial activity against Salmonella typhimurium ATCC 19430 incubated for 18 hrs by agar dilution assay). Conditions: Salmonella enterica.
Type: functional, Salmonella enterica subsp. enterica serovar Typhimurium

MIC	Compound
0.125 µg/mL and 0.179 µM	COc1cc(/C=C/C(=O)/C=C(O)/C=C/c2ccc(OC(=O)[C@@H](N)CCC(N)=O)c(OC)c2)ccc1OC(=O)[C@@H](N)CCC(N)=O.Cl.Cl

What follows are compounds tested on Pseudomonas aeruginosa (assay: Antibacterial activity against Pseudomonas aeruginosa ATCC 27853 incubated for 18 hrs by agar dilution assay). Conditions: not given.
Type: functional

MIC	Compound
0.5 µg/mL and 0.717 µM	COc1cc(/C=C/C(=O)/C=C(O)/C=C/c2ccc(OC(=O)[C@@H](N)CCC(N)=O)c(OC)c2)ccc1OC(=O)[C@@H](N)CCC(N)=O.Cl.Cl

These compounds were tested on Candida albicans (assay: Antifungal activity against Candida albicans incubated for 18 to 24 hrs by CLSI method). Conditions: time 18-24 hrs.
Type: functional

MIC	Compound
0.125 µg/mL and 0.179 µM	COc1cc(/C=C/C(=O)/C=C(O)/C=C/c2ccc(OC(=O)[C@@H](N)CCC(N)=O)c(OC)c2)ccc1OC(=O)[C@@H](N)CCC(N)=O.Cl.Cl

The compounds below were run on A549 (assay: Antiproliferative activity against human A549 cells assessed as inhibition of cell growth after 72 hrs by MTT assay). Conditions: A549, 72 h.
Type: functional, cell-based

IC50	Compound
21.1 µM	COc1cc(/C=C/C(=O)/C=C(O)/C=C/c2ccc(OC(=O)[C@@H](N)CCC(N)=O)c(OC)c2)ccc1OC(=O)[C@@H](N)CCC(N)=O.Cl.Cl

Each compound was assayed on MCF7 (assay: Antiproliferative activity against human MCF7 cells assessed as inhibition of cell growth after 72 hrs by MTT assay). Conditions: MCF7, 72 h.
Type: functional, cell-based

IC50	Compound
9.15 µM	COc1cc(/C=C/C(=O)/C=C(O)/C=C/c2ccc(OC(=O)[C@@H](N)CCC(N)=O)c(OC)c2)ccc1OC(=O)[C@@H](N)CCC(N)=O.Cl.Cl

The compounds below were run on PC-3 (assay: Antiproliferative activity against human PC3 cells assessed as inhibition of cell growth after 72 hrs by MTT assay). Conditions: PC-3, 72 h.
Type: functional, cell-based

IC50	Compound
34.4 µM	COc1cc(/C=C/C(=O)/C=C(O)/C=C/c2ccc(OC(=O)[C@@H](N)CCC(N)=O)c(OC)c2)ccc1OC(=O)[C@@H](N)CCC(N)=O.Cl.Cl
